Source: PubChem BioAssay AID1963442 (Molecular Pharmacology Branch, DTP, NCI, 2024)

System: MPNST complex spheroid with HUVEC/MSC, growth, % test/control
Test: Anticancer human tumor MPNST cell line growth inhibition [Asc];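 also: compounds left on spheroids for seven days before reading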
Conditions: for IC50: curve of first compound; for viability, T/C: stronger effect = lower value
Procedure: Multicellular complex tumor spheroid response to apoptosis pathway targeting inhibitors Alrizomadlin, Pelcitoclax, and Dasminapant in combination with a variety of drugs and investigational agents in selected tumor cell lines
The MDM2 inhibitor alrizomadlin, the Bcl-2/Bcl-xL inhibitor pelcitoclax, and the IAPs inhibitor dasminapant were evaluated both individually and in combination with standard of care and investigational anticancer small molecules within a complex spheroid model of solid tumors. . Complex spheroids include a stromal component modeled by human endothelial cells (HUVEC) and fibroblasts modeled by human mesenchymal stem cells (MSCs). The concentration ranges selected for each drug and investigational agent were based upon clinically achievable concentrations if the clinical Cmax of the agent was known.
Compounds. The drugs and investigational agents: alrizomadlin (APG-115; NSC831270), pelcitoclax (APG-1252; NSC835773), dasminapant (APG-1387;NSC834197), TAK-243 (NSC785004), copanlisib (NSC809693), olaparib (NSC753686), talazoparib (NSC767125), cobimetinib (NSC 768068), eltanexor (KPT-8602, NSC 794443), abemaciclib (NSC 768073), sotorasib (NSC818433), adagrasib (NSC 831453), MRTX-1133 (NSC 836407), Iadademestat (ORY1001, NSC 806812), and RMC-4630 (NSC839698), were obtained from the NCI Developmental Therapeutics Program Chemical Repository. The FDA-approved anticancer drug set is available from the Developmental Therapeutics Program at https://dtp.cancer.gov/organization/dscb/obtaining/available plates.htm. […] The stock solutions were prepared in dimethyl sulfoxide (DMSO, Sigma-Aldrich, St. Louis, MO, cat. D2650) at 800-fold the tested concentration and stored at -70 degrees C prior to their use. All drugs and investigational agents were tested over a range starting from a high concentration at or near the clinical Cmax and decreasing in half-log increments. If the clinical Cmax for an agent had not been determined, the highest concentration tested was 10 microM.
The patient-derived cancer (PDC) cell lines include five colon adenocarcinomas: 186277-243-T-J2-PDC, 616215-338-R-J1-PDC, 439559-082-T-J2-PDC, 463943-066-T-J2-PDC, and 519858-162-T-J1-PDC; three pancreatic carcinomas: 323965-272-R-J2-PDC, 521955-158-R6-J3-PDC, and 521955-158-R2-J5-PDC; two uterine sarcomas: 327498-152-R-J2-PDC and 993429-296-R-J1-PDC; two rhabdomyosarcomas: 755483-174-R-J1-PDC and 772245-204-R-J1-PDC; two soft tissue sarcomas: 126254-015-R-J1-PDC and 494315-158-R-J1-PDC; two malignant fibrous histiocytomas: 317291-083-R-J1-PDC and 596521-263-R-J1-PDC; two breast carcinomas: 171881-019-R-J1-PDC and 885512-296-R-J2-PDC; and one ovarian carcinoma: 6556581-035-R-J-PDC were obtained from the NCI PDMR, (https://pdmr.cancer.gov). The established cell lines HSSY-2 synovial sarcoma (RRID:CVCL 8719), SYO-1 synovial sarcoma (RRID:CVCL_7146), MPNST malignant peripheral neural sheath tumor were obtained from the Sloan Kettering Institute. The following established cell lines were purchased from the American Type Culture Collection (ATCC, Manassas, VA), Sor the received from the NCI repository:, PANC-1 pancreatic carcinoma (CRL-1469, RRID:CVCL_0480), OVCAR-5 ovarian carcinoma (RRID:CVCL_1628), OVCAR-8 ovarian carcinoma (RRID:CVCL_1629), , MCF-7 breast carcinoma (CRL-12584, RRID:CVCL_0031), MDA-MB-231 breast carcinoma (CRL-12532, RRID:CVCL_0062), NCI-H1876 small cell lung carcinoma (CRL-5902, RRID:CVCL_1503), NCI-H510A small cell lung carcinoma (HTB-184, RRID:CVCL_1565), NCI-H1417 (CRL-5869, RRID:CVCL_1469), and NCI-H196 small cell lung carcinoma (CRL-5823, RRID:CVCL_1509). Dr. Peter Houghton (Greehey Children's Cancer Research Institute, University of Texas Health Science Center, San Antonio, TX) provided Rh-18 rhabdomyosarcoma (RRID:CVCL_1659). Pooled donor human umbilical vein endothelial cells (HUVEC, Lonza, cat. CC-2519) and human mesenchymal stem cells (hMSC, Lonza, cat. PT-2501) were purchased from Lonza (Walkersville, MD).
Cell Culture. […]

[1] = second compound 0.03 µM, first compound 0.00316 µM
[2] = second compound 0.03 µM, first compound 0.01 µM
[3] = second compound 0.03 µM, first compound 0.0316 µM
[4] = second compound 0.03 µM, first compound 0.1 µM
[5] = second compound 0.03 µM, first compound 0.316 µM
[6] = second compound 0.03 µM, first compound 1 µM
[7] = second compound 0.0949 µM, first compound 0.00316 µM
[8] = second compound 0.0949 µM, first compound 0.01 µM
[9] = second compound 0.0949 µM, first compound 0.0316 µM
[10] = second compound 0.0949 µM, first compound 0.1 µM
[11] = second compound 0.0949 µM, first compound 0.316 µM
[12] = second compound 0.0949 µM, first compound 1 µM
[13] = second compound 0.3 µM, first compound 0.00316 µM
[14] = second compound 0.3 µM, first compound 0.01 µM
[15] = second compound 0.3 µM, first compound 0.0316 µM
[16] = second compound 0.3 µM, first compound 0.1 µM
[17] = second compound 0.3 µM, first compound 0.316 µM
[18] = second compound 0.3 µM, first compound 1 µM
[19] = second compound 0.949 µM, first compound 0.00316 µM
[20] = second compound 0.949 µM, first compound 0.01 µM
[21] = second compound 0.949 µM, first compound 0.0316 µM
[22] = second compound 0.949 µM, first compound 0.1 µM
[23] = second compound 0.949 µM, first compound 0.316 µM
[24] = second compound 0.949 µM, first compound 1 µM
[25] = second compound 3 µM, first compound 0.00316 µM
[26] = second compound 3 µM, first compound 0.01 µM
[27] = second compound 3 µM, first compound 0.0316 µM
[28] = second compound 3 µM, first compound 0.1 µM
[29] = second compound 3 µM, first compound 0.316 µM
[30] = second compound 3 µM, first compound 1 µM

SMILES | IC50 (second compound 0.03 µM) [µM] | IC50 (second compound 0.0949 µM) [µM] | IC50 (second compound 0.3 µM) [µM] | IC50 (second compound 0.949 µM) [µM] | IC50 (second compound 3 µM) [µM] | viability, T/C [1] [%] | viability, T/C [2] [%] | viability, T/C [3] [%] | viability, T/C [4] [%] | viability, T/C [7] [%] | viability, T/C [8] [%] | viability, T/C [9] [%] | viability, T/C [10] [%] | viability, T/C [13] [%] | viability, T/C [14] [%] | viability, T/C [15] [%] | viability, T/C [16] [%] | viability, T/C [19] [%] | viability, T/C [20] [%] | viability, T/C [21] [%] | other results
CCN1CCN(Cc2ccc(Nc3ncc(F)c(-c4cc(F)c5nc(C)n(C(C)C)c5c4)n3)nc2)CC1 + CCN1C(C(=O)NC23CCC(C(=O)O)(CC2)CC3)C(c2cccc(Cl)c2F)C2(C(=O)Nc3cc(Cl)ccc32)C12CCCCC2 | > 1 | > 1 | > 1 | > 1 | > 1 | 107 | 109 | 88.7 | 75.3 | 98.1 | 111 | 104 | 106 | 113 | 93.9 | 87.1 | 103 | 105 | 91.6 | 92.1 | viability, T/C [5]: 64.5%; viability, T/C [6]: 72.6%; viability, T/C [11]: 73.9%; viability, T/C [12]: 77%; viability, T/C [17]: 115%; viability, T/C [18]: 90.1%; viability, T/C [22]: 92.3%; viability, T/C [23]: 90.2%; viability, T/C [24]: 91.4%; viability, T/C [25]: 107%; viability, T/C [26]: 92%; viability, T/C [27]: 91.9%; viability, T/C [28]: 76.5%; viability, T/C [29]: 89.3%; viability, T/C [30]: 85.7%
Cn1ncnc1[C@H]1c2n[nH]c(=O)c3cc(F)cc(c23)N[C@@H]1c1ccc(F)cc1 + CCN1C(C(=O)NC23CCC(C(=O)O)(CC2)CC3)C(c2cccc(Cl)c2F)C2(C(=O)Nc3cc(Cl)ccc32)C12CCCCC2 | 0.0472 | > 0.1 | > 0.1 | > 0.1 | > 0.1 | 80.2 | 65.9 | 54.4 | 43.4 | 97.7 | 95.5 | 74.9 | 52.1 | 88.4 | 91.7 | 91.1 | 57.7 | 79.8 | 90.6 | 81.2 | viability, T/C (second compound 0.03 µM, first compound 0.000316 µM): 84.6%; viability, T/C (second compound 0.03 µM, first compound 0.001 µM): 82%; viability, T/C (second compound 0.0949 µM, first compound 0.000316 µM): 106%; viability, T/C (second compound 0.0949 µM, first compound 0.001 µM): 91.9%; viability, T/C (second compound 0.3 µM, first compound 0.000316 µM): 106%; viability, T/C (second compound 0.3 µM, first compound 0.001 µM): 92.9%; viability, T/C (second compound 0.949 µM, first compound 0.000316 µM): 80.2%; viability, T/C (second compound 0.949 µM, first compound 0.001 µM): 109%; viability, T/C [22]: 70.7%; viability, T/C (second compound 3 µM, first compound 0.000316 µM): 97.1%; viability, T/C (second compound 3 µM, first compound 0.001 µM): 94.3%; viability, T/C [25]: 89.8%; viability, T/C [26]: 86.6%; viability, T/C [27]: 73.6%; viability, T/C [28]: 72.7%
O=C(c1ccc(F)c(F)c1Nc1ccc(I)cc1F)N1CC(O)([C@@H]2CCCCN2)C1 + CCN1C(C(=O)NC23CCC(C(=O)O)(CC2)CC3)C(c2cccc(Cl)c2F)C2(C(=O)Nc3cc(Cl)ccc32)C12CCCCC2 | 0.467 | 0.323 | 0.281 | 0.247 | 0.139 | 87.4 | 65 | 72.2 | 95.9 | 95.4 | 78 | 87.6 | 84.9 | 90.9 | 76 | 90.9 | 91.8 | 88.9 | 93.6 | 82.2 | viability, T/C [5]: 65.9%; viability, T/C [6]: 18.9%; viability, T/C [11]: 50.6%; viability, T/C [12]: 18.7%; viability, T/C [17]: 45.7%; viability, T/C [18]: 17.7%; viability, T/C [22]: 81.5%; viability, T/C [23]: 41.4%; viability, T/C [24]: 17.3%; viability, T/C [25]: 77.4%; viability, T/C [26]: 82.9%; viability, T/C [27]: 68.3%; viability, T/C [28]: 58.6%; viability, T/C [29]: 32.1%; viability, T/C [30]: 10.7%
